Experimental findings from PMC9995496, “A screen for MeCP2-TBL1 interaction inhibitors using a luminescence-based assay” (Scientific Reports, 2023) are described below.

For test [1], the target named is T1, TBLR1 (Homo sapiens, UniProt Q9BZK7).
T1 sequence (Q9BZK7 1-514): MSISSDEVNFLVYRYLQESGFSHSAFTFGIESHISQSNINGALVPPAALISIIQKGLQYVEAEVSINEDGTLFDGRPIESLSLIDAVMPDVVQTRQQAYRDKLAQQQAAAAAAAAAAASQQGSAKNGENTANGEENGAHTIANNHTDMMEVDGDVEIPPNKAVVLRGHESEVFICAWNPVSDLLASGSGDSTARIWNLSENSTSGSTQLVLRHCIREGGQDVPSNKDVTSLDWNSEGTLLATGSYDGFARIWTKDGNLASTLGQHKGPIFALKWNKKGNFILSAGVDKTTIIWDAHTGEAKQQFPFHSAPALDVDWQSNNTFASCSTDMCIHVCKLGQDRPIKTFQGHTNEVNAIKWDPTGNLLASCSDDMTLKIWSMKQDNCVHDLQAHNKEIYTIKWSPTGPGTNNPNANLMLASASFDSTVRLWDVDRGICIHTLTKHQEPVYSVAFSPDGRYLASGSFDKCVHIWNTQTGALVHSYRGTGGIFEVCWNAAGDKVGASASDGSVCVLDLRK
Kind of test: MeCP2 peptide SPOT array probed with recombinant HIS6-tagged TBLR1. It is filed as binding. The settings on record: recombinant HIS6-tagged TBLR1 2 µM. Here is the method: The Z-factor is a statistic frequently used to assess the suitability of an assay for high throughput screening. We calculated the Z-factor of our assay in 384-well plate format using a short 12 residue MeCP2 NID derived-peptide variant as positive control and DMSO as negative control.
Western blotting was performed using antibodies against NanoLuc (Promega), MeCP2 (Sigma, M6818) and Sin3A (Abcam, Ab3479). […] The biotin at the N-terminus of these peptides was not relevant to the experiments in this work. […] The array membrane was incubated with recombinant HIS6‐tagged TBLR1 (2 µM) and immunodetection was performed with anti-HIS antibody (Sigma, H1029). Uniform synthesis efficiency across the array was ascertained by UV absorption. […] Note the shorter N-terminus and longer C-terminus of this peptide compared to the sequences used on the SPOT array. UMT026-2 was used at 50 µM when calculating the Z-factor[39].
The wild-type amino acids at these positions (Pro, Ile, Lys and Lys) make directs contacts with TBLR1. Arrows denote spots with increased binding and red dots indicate the wild-type amino acid.

Test [2] addresses T2, MeCP2-TBL1 interaction (MeCP2-SmBiT / TBL1-LgBiT) (Mus musculus, UniProt Q9QXE7).
T2 construct: expressed in transfected cells; crude lysate used as a cell-free assay
T2 sequence (Q9QXE7 166-527): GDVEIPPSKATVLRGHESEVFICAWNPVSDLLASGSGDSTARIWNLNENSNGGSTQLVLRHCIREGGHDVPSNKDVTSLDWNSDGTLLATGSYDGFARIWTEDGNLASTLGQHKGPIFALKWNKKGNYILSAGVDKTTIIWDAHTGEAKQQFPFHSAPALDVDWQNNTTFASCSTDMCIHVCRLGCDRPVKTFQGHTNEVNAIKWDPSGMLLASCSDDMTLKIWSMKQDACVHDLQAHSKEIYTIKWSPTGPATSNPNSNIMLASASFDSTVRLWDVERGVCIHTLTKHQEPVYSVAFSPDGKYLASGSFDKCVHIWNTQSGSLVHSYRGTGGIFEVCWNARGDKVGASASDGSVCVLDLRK
Kind of test: MeCP2-TBL1 NanoLuc luciferase complementation assay (cell-free, extracts of transfected HEK293 cells). It is filed as binding, human. The settings on record: dose response 0.3–60 μM, triplicate, 30 min, luminescence normalized to DMSO; read-out: IC50, inhibition of MeCP2-TBL1 luminescence signal. An outline of the steps:
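Cell-free split NanoLuc: lysate of HEK293 cells co-expressing the MeCP2 C-terminal half-SmBiT and TBL1 WD domain-LgBiT, mixed 1:1 with furimazine. After 30 min at room temperature, luminescence was plate-median normalized.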

pIC50: −log10 of the molar value.

In general, pIC50 refers to the IC50 on a negative log10 scale, so that one unit is a factor of ten. As for “Ac-ETVLPIYKRKTR-NH2 [K304Y mutant peptide]”, in test [1], the “TBL1/TBLR1 binding on peptide SPOT array relative to wild type” value is “stronger TBL1/TBLR1 binder”. For the same substance, in test [2], the pIC50 is ~4.40.
